Patent US4265906A, “Low mammalian toxic and/or low fish toxic insecticides and/or acaricides” (priority 1978, dated 1981)
≈ marks a conversion by molar mass, not a printed value. Where two headings read alike, the source gives them in different places.

Columns and labels:
[1] = tested on: Oryzias latipes / Nephotettix cincticeps; assay: Fish safety coefficient calculated from fish toxicity and insecticidal activity (Test Example 1); settings: for Safety coefficient to fishes (a)/(b): TLm48 (Oryzias latipes) divided by concentration in water at LC50 for N. cincticeps
Procedure: In order to make more clear the low fish toxicity and the high activity to target insects, which are charcteristic of the compounds of this invention, a fish safety coefficient was calculated from the test results of fish toxicity and insecticidal activity by the following equation and shown in Table 2. [formula]
In the case of N. cincticeps, calculation was based on a hyothetical concentration of the test compound in water obtained by assuming that a test preparation of the active ingredient content corresponding to LC50 (ppm) was sprayed over a submerged paddy field, 5 cm in depth of water, at a rate of 100 liters per 10 ares and total active ingredient was absorbed by the water.
For example, in the case of compound (1) of this invention, the quantity of water per 10 ares of the submerged paddy field, 5 cm in depth of water, is 50 tons. If a preparation of the active ingredient content equivalent to LC50 (ppm) of the compound (1) is sprayed at a rate of 100 liters per 10 ares, the concentration of the compound (1) in the water is 0.007 ppm. The fish toxicity [TLm48 ] of the compound (1) is 6.0 ppm. The fish safety coefficient (857.1) is obtained by dividing 6.0 by 0.007.

[2] = tested on: R-type Nephotettix cincticeps; assay: Insecticidal activity test, activity to Nephotettix cincticeps (Test Example 1); assay type: in vivo
Procedure: 2. Insecticidal activity test.
Test emulsion preparations were prepared in the same manner as in Formulation Example 1.
Activity to Nephotettix cinciticips
The test insect was resistant to carbamates (hereinafter referred to as R-type). The active ingredient content of test preparation was varied in 4 levels within the range of 500 to 1 ppm. The test preparation was sprayed over 180-ml plastic cups grown with rice plant one-month old from sowing and placed on a turn table, the application rate having been 15 cc/2 cups. After air drying, the plant was covered with a wire-screen cage. A group of 15 female adults of R-type Nephotettix cincticeps was released in each cage and kept at 26° C. in an artificial climate condition. After 24 hours, the dead and alive were observed. The median lethal concentration [LC50 (ppm)] was calculated from the mortality determined by 3-repetition test.

[3] = Fish toxicity test, median tolerance limit 48 hours (Test Example 1); assay type: in vivo, Oryzias latipes (killifish); settings: in vivo; Oryzias latipes, 48 hours; read-out: Fish toxicity TLm48 (a)
Procedure: (§1) Ten member group of Oryzias latipes (0.2-0.3 g/fish) was released in a 10-liter glass vessel containing 10 liters of a test preparation which was dissolved or suspended in "Tween 80" and diluted successively with dechlorinated tap water. After 48 hours, the dead and alive were counted to determine median tolerance limit (48 hours) [TLm48 (ppm)] value.

[4] = tested on: R-type Nephotettix cincticeps; assay: Mortality by isomer mixtures on rice plant (Test Example 2); assay type: in vivo; settings: 10 ppm active ingredient, 24 hours
Source text: The present compound (1) and (2) were mixed in a predetermined proportion, formulated into an emulsifiable concentrate according to Formulation Example 1 and diluted with water so that the amount of active ingredient was 10 ppm.
The test preparation was sprayed over rice plant in tillering stage planted in a 1/10,000 are Wagner pot, at a rate of 15 cc per pot. After airdrying, the plant was covered with a wire-screen cage into which were released 15 female adults of R-type Nephotettix cincticeps. The pot was kept at 26° C. in an artificial climate condition. After 24 hours, the dead and alive were observed and the mortality was obtained by 3-repetition test.

[5] = Oral toxicity test (Test Example 10); settings: in vivo, male mouse, corn oil
Procedure: The present compound (1) was dissolved or suspended in a corn oil, and the resulting solution was orally administered to a male mouse (18 to 22 g) at a rate of 0.2 ml/10 g body weight. After 24 hours, the mortality was examined to obtain the median lethal dose (LD50 mg/kg).

[6] = Toxicity to carps (Test Example 12); assay type: in vivo; settings: carp, dechlorinated tap water, read-out: TLm48
Procedure: (§2) The dust of the present compound (1) prepared in Formulation Example 2 was diluted with dechlorinated tap water to a predetermined concentration of active ingredient. Ten liters of the test solution was placed in a 10-liter glass vessel, and 10 killifishes (Oryzias latipes) were liberated therein. After 48 hours, the dead and alive were examined, and TLm48 (ppm) was calculated from the concentration of active ingredient.
Toxicity to carps was tested according to the test method for toxicity to fishes described in Test Example 11, and TLm48 (ppm) values after 48 hours were obtained.

[7] = tested on: green rice leafhopper (Nephotettix cincticeps); assay: Residual effect test (Test Example 9); assay type: in vivo; settings: 400 ppm, 24 hours
Procedure: The emulsifiable concentrate of the present compound (1) prepared in Formulation Example 1 was diluted with water so that the concentration of active ingredient was 400 ppm. Thereafter, 20 cc of the dilute solution was sprayed on rice plants grown in a 1/10,000 are Wagner's pot. The rice plants were air-dried and covered with a wire-screen cage, and 15 female adults of green rice leafhopper (Nephotettix cincticeps) were liberated therein. After 24 hours, the dead and alive were examined to obtain mortality. In order to examine the residual effect, the pot was then left as it was for 7 days, and the test insects were liberated in the same manner as above. After 24 hours, the mortality was examined. The experiment was carried out in a greenhouse and the number of repetitions was three.

[8] = tested on: killifishes (Oryzias latipes); assay: Model paddy field box test, killifishes (Test Example 13); assay type: in vivo; settings: wettable powder, 100 ppm, 100 liter/10 are, water depth 5 cm, after 48 hours
Procedure: (§3) The wettable powder of the present compound (1) prepared in Formulation Example 3 was diluted with water so that the concentration of active ingredient was 100 ppm. Soil was placed in a plastic box [5m×5m×2m (deep)] to a level of 50 cm from the bottom, and rice plants about 50 cm high were transplanted at intervals of 50 cm. Water was then placed in the bos so that water depth was 5 cm, and 20 killifishes (Oryzias latipes) were liberated therein. Thereafter, the above dilute solution was sprayed on the box at a rate of 100 liter/10 are. The solution fell on the rice plants as well as on the water surface.
(§4) One hour after treatment, 100 female adults of green rice leafhopper (Nephotettix cincticeps) were liberated in the box which was immediately covered with a net.

[9] = tested on: green rice leafhopper (Nephotettix cincticeps); assay: Model paddy field box test, green rice leafhopper (Test Example 13); assay type: in vivo; settings: wettable powder, 100 ppm, 100 liter/10 are, after 48 hours
Procedure: as §3, §4

[10] = tested on: third instar larvae of rice stem borer (Chilo suppressalis); assay: Rice seedling dipping test, rice stem borer (Test Example 6); assay type: in vivo; settings: 240 h, 10 days, read-out: larvae killed
Procedure: The emulsifiable concentrate of the present compound (1) prepared in Formulation Example 1 was diluted with water so that the concentration of active ingredient was 500 ppm. Five rice seedlings which had elapsed 10 days after sowing were dipped in the dilute solution and air-dried. The rice seedlings and 10 third instar larvae of rice stem borer (Chilo suppressalis) were placed in a plastic cup (diameter 5.5 cm, height 3.5 cm) which was then placed in an artificial climate chamber kept at 26° C.

[11] = Fish toxicity of dust, killifishes (Test Example 11); assay type: in vivo; settings: dechlorinated tap water, dust of Formulation Example 2, Oryzias latipes, read-out: TLm48
Procedure: as §2

[12] = tested on: WHO strain housefly female adults (Musca domestica); assay: Topical application to housefly (Test Example 5); assay type: in vivo; settings: 24 hours
Procedure: The present compound (1) was diluted with acetone to four different concentrations.
The acetone dilute solution was topically applied to the ventral thorax of WHO strain housefly female adults (Musca domestica), at a rate of 0.5 μl/adult by means of a microsyringe.
The adults were then liberated in a plastic cup of 12 cm in diameter and given a 1% sugar water. After 24 hours, the dead and alive were examined. The median lethal does (LD50 μg/adult) was obtained from the mortality of 50 adults per group.

[13] = tested on: full grown larvae of Aedes aegypty (Culex pipiens pallens); assay: Mosquito larvae test (Test Example 7); assay type: in vivo; settings: 24 hours, read-out: larvae killed
Procedure: The emulsifiable concentrate of the present compound (1) prepared in Preparation example 1 was diluted with distilled water so that the concentration of active ingredient was 0.1 ppm. One hundred milliliters of the dilute solution was placed in a 180-ml plastic cup, and 30 full grown larvae of Aedes aegypty (Culex pipiens pallens) were liberated therein. After 24 hours, 100% of the larvae could be killed.

[14] = tested on: Oryzias latipes; assay: Fish toxicity test, median tolerance limit 48 hours (Test Example 1); assay type: in vivo, Oryzias latipes (killifish); settings: killifish, in words
Procedure: as §1

[15] = tested on: carmine mites (Tetranychus cinnabarinus); assay: Acaricidal test on rice plants, carmine mites (Test Example 8); assay type: in vivo; settings: 500 ppm, after 10 days
Procedure: The emulsifiable concentrate of the present compound (1) prepared in Formulation Example 1 was diluted with water so that the concentration of active ingredient was 500 ppm. The dilute solution was then thoroughly sprayed on rice plants (grown in a 1/10,000 are Wagner's pot) on which carmine mites (Tetranychus cinnabarinus) in all stages were made parasitic.

[16] = tested on: Laodelphax striatellus; assay: Insecticidal activity, Laodelphax striatellus (Test Example 4); assay type: in vivo; settings: Laodelphax striatellus female adults, 24 hours, 26° C.
Procedure: The emulsion preparation containing the compound (1) of this invention, described in Formulation Example 1, was diluted with water. The active ingredient content of the test prepartion was varied in 4 levels within the range of 150 to 10 ppm. The test preparation was sprayed over 180 ml plastic cups grown with rice plant and placed on a turn table the application rate having been 15 cc/2 cups. After air drying, the plant was covered with a wire-screen cage. A group of 15 female adults of Laodelphax striatellus was released in each cage and kept at 26° C. in an artificial climate condition. After 24 hours, the dead and alive were observed. The median lethal concentration [LC50 (ppm)] was calculated from the mortality determined by 3-repetition test.

[17] = R-type (carbamate-resistant) Nephotettix cincticeps female adults, 24 hours, 26° C., read-out: LC50

| SMILES | Safety coefficient to fishes (a)/(b) [1] | LC50 [2, 17] [µg/mL] | LC50 at 48 h [3] [µg/mL] | LD50 at 24 h [5] [mg/kg] | further results |
| --- | --- | --- | --- | --- | --- |
| CC1(C)C(C=C(Cl)Cl)C1C(=O)OC(C#N)c1cccc(Oc2ccc(Br)cc2)c1 (racemic) [(A), m-(p-bromophenoxy)-α-cyanobenzyl dl-cis, trans-2,2-dimethyl-3-(2,2-dichlorovinyl)cyclopropanecarboxylate] | 56.3 | 8 (≈ 16.2 µM) | 0.9 (≈ 1.82 µM) | – | – |
| CC(C)=CC1C(C(=O)OCc2cccc(Oc3ccccc3)c2)C1(C)C (racemic) [(B), m-phenoxybenzyl dl-cis,trans chrysanthemate] | – | – | – | – | mortality at 10 ppm [4]: 10% |
| CC1(C)C(C=C(Cl)Cl)C1C(=O)OCc1cccc(Oc2ccccc2)c1 (racemic) [(C), m-phenoxybenzyl dl-cis,trans-2,2-dimethyl-3-(2,2-dichlorovinyl)cyclopropanecarboxylate] | 0.8 | 18 (≈ 46 µM) | 0.027 (≈ 0.069 µM) | 650 | – |
| CC1(C)C(C=C(Cl)Cl)C1C(=O)OC(C#N)c1cccc(Oc2ccc(F)cc2)c1 (racemic) [(E), m-(p-fluorophenoxy)-α-cyanobenzyl dl-cis,trans-2,2-dimethyl-3-(2,2-dichlorovinyl)cyclopropanecarboxylate] | 0.3 | 5 (≈ 11.5 µM) | 0.003 (≈ 0.00691 µM) | 300 | – |
| CC1(C)C(C=C(Cl)Cl)C1C(=O)OC(C#N)c1cccc(Oc2ccccc2)c1 (racemic) [Reference compound (D), m-phenoxy-α-cyanobenzyl dl-cis,trans-2,2-dimethyl-3-(2,2-dichlorovinyl)-cyclopropanecarboxylate] | 2.6 | 5 (≈ 12 µM) | 0.026 (≈ 0.0625 µM) | 112 | LC50 at 48 h [6]: ≤ 0.01 µg/mL |
| CC1(C)[C@H](C=C(Cl)Cl)[C@H]1C(=O)OC(C#N)c1cccc(Oc2ccc(Br)cc2)c1 (relative stereo) [Compound (1), m-(p-bromophenoxy)-α-cyanobenzyl dl-trans-2,2-dimethyl-3-(2,2-dichlorovinyl)cyclopropanecarboxylate] | 857.1 | 3.5 (≈ 7.07 µM) | 6 (≈ 12.1 µM) | > 2000 | Mortality (%), effect immediately after treatment [7]: 100%; Mortality (%), effect 7 days after treatment ([7]; insects liberated 7 days after treatment): 100%; survival of killifishes [8]: all of the killifishes were alive; green rice leafhoppers found [9]: no green rice leafhoppers were found; mortality at 500 ppm [10]: 100%; safety coefficient to fishes compared with reference compounds ([1]; in words): shows a very high value as compared with that of the reference compounds; insecticidal activity compared with reference compounds ([2]; Nephotettix cincticeps, in words): higher in insecticidal activity than the reference compounds (A), (C) and (F); LC50 at 48 h [6]: > 10 µg/mL; LC50 at 48 h [11]: > 10 µg/mL; LD50 [12]: 0.035 μg/adult; mortality at 0.1 ppm [13]: 100%; toxicity to killifish compared with reference compounds [14]: lower in toxicity to killifish than the reference compounds (A), (C), (D) and (E); degree of damage by the carmine mites [15]: the spreading of damage could be prevented; LC50 [16]: 70 µg/mL (≈ 141 µM) |
| CNC(=O)Oc1ccc(C)c(C)c1 [(F)] | 17.0 | – | 11.9 (≈ 66.4 µM) | 60 | LC50 ([2]; Nephotettix cincticeps, 24 h): 350 µg/mL (≈ 1950 µM) |
